Test results as given in patent publication US5480893A, “Inhibitors of farnesyl protein transferase” (Merck & Co., Inc., priority 1994, dated 1996).

What was measured:
[1] = molecular target: T1, Farnesyl-protein transferase (FTase) from bovine brain (Bos taurus, UniProt P29702+P49355); experiment: In vitro inhibition of Ras Farnesyl Transferase; type: biochemical; conditions: Ras-CVLS 3.5 μM, [3H]FPP 0.25 μM, partially purified bovine brain FTase; read-out: IC50 (concentration of compound which gives 50% inhibition of FTase)
T1 construct: Farnesyl-protein transferase (FTase) from bovine brain; from tissue; host or cells: bovine brain, partially purified (DEAE-Sephacel, N-octyl agarose, Mono Q HPLC)
Procedure: In vitro inhibition of Ras Farnesyl Transferase […] Ras-CVLS at 3.5 μ[…], and the indicated compounds were incubated with this partially purified enzyme preparation. The FTase data presented below is a measurement of the ability of the test compound to inhibit Ras farnesylation in vitro. | *(IC50 is the concentration of compound which gives 50% inhibition o | FTase under the described assay conditions)

[2] = test system: Ras farnesylation in the v-ras cell line (Ha-ras p21); experiment: In vivo ras farnesylation assay (v-ras cell line); type: cell-based
Procedure: In vivo ras farnesylation assay
The cell line used in this assay was the v-ras line, which expressed vital Ha-ras p21. The assay was performed essentially as described in DeClue, J. E. et. al., Cancer Reasearch 51, 712-717, (1991). Cells in 10 cm dishes at 50-75% confluency were treated with the test compound (final concentration of solvent, methanol or dimethyl sulfoxide, was 0.1%). After 4 hours at 37° C., the cells were labelled in 3 ml methionine-free DMEM supplemeted with 10% regular DMEM, 2% fetal bovine serum and 400 μCi[^35 S] methionine (1000 Ci/mmol). After an additional 20 hours, the cells were lysed in 1 ml lysis buffer (1% NP40/20 nnM HEPES, pH 7.5/5 mM MgCl2 /1 mM DTT/10 μg/ml aprotinen/2 μg/ml leupeptin/2 μg/ml antipain/0.5 mM PMSF) and the lysates cleared by centrifugation at 100,000×g for 45 min. Aliqouts of lysates containing equal numbers of acid-precipitable counts were brought to 1 ml with IP buffer (lysis buffer lacking DTT) and immunoprecipitated with the ras-specific monoclonal antibody Y13-259 (Furth, M. E. et al., J. Virol. 43, 294-304, (1982)). Following a 2 hour antibody incubation at 4° C., 200 μl of a 25% suspension of protein A-Sepharose coated with rabbit anti rat IgG was added for 45 min. […]

Ras farnesylation = conditions: literature; cited from earlier work

Structure (SMILES)	IC50 [1]	Inhibition of Ras farnesylation in vivo (Ras farnesylation)	other results
CC[C@H](C)[C@H](NC[C@@H](N)CS)C(=O)N[C@H](C(=O)N[C@@H](CCCO)C(=O)O)[C@@H](C)CC	0.024 µM	–	–
CC[C@H](C)[C@H](NC[C@@H](NC[C@@H](N)CS)[C@@H](C)CC)C(=O)N[C@H]1CCOC1=O [N-[2(S)-(2(R)-amino-3-mercaptopropylamino)-3(S)-methylpentyl]isoleucyl-homoserine lactone]	0.95 µM	–	inhibition at 100 µM ([2]; at 100 μM test concentration, 4 hours then additional 20 hours with [35S]methionine): 90%
CC[C@H](C)[C@H](NC[C@@H](NC[C@@H](N)CS)[C@@H](C)CC)C(=O)N[C@@H](CCO)C(=O)O [N-[2(S)-(2(R)-amino-3-mercaptopropylamino)-3(S)-methylpentyl]isoleucyl-homoserine]	0.012 µM	–	Inhibition of Ras farnesylation ([2]; result in words, test concentration not printed for this compound): No Inhibition
CC[C@H](C)[C@H](NC[C@@H](N)CS)C(=O)N[C@H](C(=O)N[C@H]1CCCOC1=O)[C@@H](C)CC [N-[N'-(2(R)-amino-3-mercaptopropyl)isoleucyl-isoleucyl]-3(S)-aminotetrahydropyran-2-one]	0.47 µM	–	–
CC[C@H](C)C(=O)O[C@H]1CCC=C2C=C[C@H](C)[C@H](CC[C@@H]3C[C@@H](O)CC(=O)O3)[C@H]21 [compactin]	–	Inhibition of Ras farnesylation in vivo has been demonstrated	–
CC[C@H](C)C(=O)O[C@H]1C[C@@H](C)C=C2C=C[C@H](C)[C@H](CC[C@@H]3C[C@@H](O)CC(=O)O3)[C@H]21 [lovastatin]	–	Inhibition of Ras farnesylation in vivo has been demonstrated	–
